# ChEMBL document CHEMBL1201862, “PubChem BioAssay data set” (2004)
# The source made the active and inactive calls.
# Legend:
# [1] = biological target: Disintegrin and metalloproteinase domain-containing protein 17 (Homo sapiens, UniProt P78536); assay: inhibition of ADAM17 substrate cleavage – biochemical, quenched FRET substrate, counter-screen for ADAM10 exosite inhibitor project, dose response (AID 743253)
# [2] = potency of ADAM10 substrate cleavage blockers – biochemical, QFRET, dose response (AID 743254);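 also: ADAM10 enzyme with the DM2 quenched FRET peptide as substrate; EDANS fluorescence gain as the protease cuts the substrate; inhibitor potency against ADAM10 proteolytic activity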
# [3] = biological target: T1, Protein skinhead-1 (Caenorhabditis elegans, UniProt P34707); assay type: functional
# T1 sequence (P34707 whole entry): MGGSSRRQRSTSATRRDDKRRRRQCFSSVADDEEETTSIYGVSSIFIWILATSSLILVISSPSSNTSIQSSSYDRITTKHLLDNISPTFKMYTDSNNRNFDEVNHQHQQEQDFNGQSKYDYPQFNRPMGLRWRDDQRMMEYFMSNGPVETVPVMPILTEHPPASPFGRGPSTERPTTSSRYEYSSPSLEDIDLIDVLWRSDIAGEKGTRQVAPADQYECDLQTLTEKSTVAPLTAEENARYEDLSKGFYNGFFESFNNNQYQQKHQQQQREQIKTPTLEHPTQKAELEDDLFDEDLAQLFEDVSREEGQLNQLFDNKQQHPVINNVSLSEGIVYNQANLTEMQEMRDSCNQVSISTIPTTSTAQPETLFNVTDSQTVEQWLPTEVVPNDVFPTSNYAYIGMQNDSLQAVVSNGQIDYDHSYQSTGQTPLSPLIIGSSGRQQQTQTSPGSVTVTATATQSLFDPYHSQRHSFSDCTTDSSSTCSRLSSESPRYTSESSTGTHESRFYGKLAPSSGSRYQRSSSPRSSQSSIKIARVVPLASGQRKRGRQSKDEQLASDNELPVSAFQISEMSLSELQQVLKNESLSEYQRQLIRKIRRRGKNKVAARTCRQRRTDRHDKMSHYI
# [4] = biological target: T2, Oxysterols receptor LXR-beta (Homo sapiens, UniProt P55055); assay type: functional, cell-based;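 also: agonist activity at LXR measured by a cell-based luminescence readout across a dose range, run as a counterscreen for daf-12 agonists; HEK293 cells with Gal4-LXR fusion and GAL4-driven luciferase reporter; potency for activation of Gal4-LXR reporter so compounds are agonists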
# T2 sequence (P55055 whole entry): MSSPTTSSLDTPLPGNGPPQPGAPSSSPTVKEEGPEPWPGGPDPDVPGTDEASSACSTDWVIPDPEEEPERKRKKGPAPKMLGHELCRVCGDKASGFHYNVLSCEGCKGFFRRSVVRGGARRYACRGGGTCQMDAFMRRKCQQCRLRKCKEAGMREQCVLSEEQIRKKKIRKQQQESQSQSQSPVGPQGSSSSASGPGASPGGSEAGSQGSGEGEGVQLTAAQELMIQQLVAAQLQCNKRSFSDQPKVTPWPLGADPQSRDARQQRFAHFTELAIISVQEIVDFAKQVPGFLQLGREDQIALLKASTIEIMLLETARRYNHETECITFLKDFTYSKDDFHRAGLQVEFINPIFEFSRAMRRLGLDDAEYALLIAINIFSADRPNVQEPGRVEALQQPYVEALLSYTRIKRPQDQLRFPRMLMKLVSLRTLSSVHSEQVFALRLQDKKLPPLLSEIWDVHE
# [5] = biological target: Caspase-8 (Homo sapiens, UniProt Q14790); assay: inhibitors of purified CASP8 protease – biochemical, Z-IETD-R110 fluorescence, cherry-picked samples, selectivity assay for caspase-6 inhibitor project, dose response (AID 743294)
# [6] = biological target: T3, Carboxy-terminal domain RNA polymerase II polypeptide A small phosphatase 1 (Homo sapiens, UniProt Q9GZU7); assay: CTDSP1 inhibitors, concentration-response, biochemical, absorbance readout, ultra-high-throughput screen actives (AID 540297); assay type: functional
# T3 sequence (Q9GZU7 whole entry): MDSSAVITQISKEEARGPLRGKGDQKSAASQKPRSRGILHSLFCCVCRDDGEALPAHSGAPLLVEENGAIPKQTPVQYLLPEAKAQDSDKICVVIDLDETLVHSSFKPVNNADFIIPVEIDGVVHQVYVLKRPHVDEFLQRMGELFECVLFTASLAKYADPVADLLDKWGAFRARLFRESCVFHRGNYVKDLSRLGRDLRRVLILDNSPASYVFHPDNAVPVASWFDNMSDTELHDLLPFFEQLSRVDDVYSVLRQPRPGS
# [7] = biological target: T4, Caspase-7 (Homo sapiens, UniProt P55210); assay: caspase-7 enzyme inhibition, selectivity check – biochemical, DEVD-R110 fluorescence, cherry-pick, selectivity assay for caspase-6 inhibitor project, dose response (AID 743295); assay type: functional
# T4 sequence (P55210 whole entry): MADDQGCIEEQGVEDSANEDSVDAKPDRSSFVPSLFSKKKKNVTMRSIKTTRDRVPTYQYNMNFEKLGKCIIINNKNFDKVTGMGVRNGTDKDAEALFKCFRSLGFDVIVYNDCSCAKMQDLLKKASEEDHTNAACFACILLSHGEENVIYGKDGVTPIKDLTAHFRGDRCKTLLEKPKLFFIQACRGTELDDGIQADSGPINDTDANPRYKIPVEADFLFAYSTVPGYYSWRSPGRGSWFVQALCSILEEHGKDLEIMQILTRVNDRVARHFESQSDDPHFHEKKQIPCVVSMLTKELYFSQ
# [8] = biological target: Phospholipase A2 (Homo sapiens, UniProt P04054); assay type: functional;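 also: confirmatory dose-response counterscreen on phospholipase A2, testing hits that came from an ultra-high-throughput screen for ATG4B inhibitors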
# [9] = biological target: T5, Caspase-6 (Homo sapiens, UniProt P55212); assay: inhibition of CASP6 peptide cleavage – biochemical, VEID-R110 fluorescence, cherry-pick, dose response (AID 720632)
# T5 sequence (P55212 whole entry): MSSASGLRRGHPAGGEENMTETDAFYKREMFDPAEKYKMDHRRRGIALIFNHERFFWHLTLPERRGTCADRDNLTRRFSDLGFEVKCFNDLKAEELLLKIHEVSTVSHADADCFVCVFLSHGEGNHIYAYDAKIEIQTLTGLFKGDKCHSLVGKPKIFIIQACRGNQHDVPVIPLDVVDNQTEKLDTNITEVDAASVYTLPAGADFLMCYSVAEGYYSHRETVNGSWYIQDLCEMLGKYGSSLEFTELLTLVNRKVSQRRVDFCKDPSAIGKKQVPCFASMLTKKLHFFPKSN
# [10] = biological target: T6, Cysteine protease ATG4B (Homo sapiens, UniProt Q9Y4P1); assay type: functional;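 also: Fluorescence-based dose-response confirmation assay measuring inhibition of ATG4B activity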
# T6 sequence (Q9Y4P1 whole entry): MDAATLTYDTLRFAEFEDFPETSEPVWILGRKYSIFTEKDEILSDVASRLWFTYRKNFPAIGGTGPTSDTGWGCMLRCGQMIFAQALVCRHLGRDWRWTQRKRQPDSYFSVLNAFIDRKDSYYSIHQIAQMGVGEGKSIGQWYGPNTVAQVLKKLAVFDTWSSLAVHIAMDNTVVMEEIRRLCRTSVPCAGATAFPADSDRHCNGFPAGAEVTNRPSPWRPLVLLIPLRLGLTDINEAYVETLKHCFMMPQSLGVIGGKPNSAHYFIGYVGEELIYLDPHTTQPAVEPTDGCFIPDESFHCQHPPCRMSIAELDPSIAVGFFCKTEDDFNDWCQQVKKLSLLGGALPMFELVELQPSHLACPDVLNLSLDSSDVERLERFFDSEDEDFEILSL
# [11] = biological target: T7, Caspase-3 (Homo sapiens, UniProt P42574); assay: human caspase-3 protease activity blockade – biochemical, fluorescence, cherry-picked samples, selectivity assay for caspase-6 allosteric inhibitor project, dose response (AID 743291)
# T7 sequence (P42574 whole entry): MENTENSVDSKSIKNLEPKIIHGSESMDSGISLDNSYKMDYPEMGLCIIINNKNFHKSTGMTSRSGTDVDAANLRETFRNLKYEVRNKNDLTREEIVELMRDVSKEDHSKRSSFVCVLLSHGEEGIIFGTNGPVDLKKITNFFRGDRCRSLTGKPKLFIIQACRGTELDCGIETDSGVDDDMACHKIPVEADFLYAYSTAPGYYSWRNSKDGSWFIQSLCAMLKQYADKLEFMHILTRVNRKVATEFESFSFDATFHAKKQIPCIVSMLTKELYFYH
# [12] = biological target: T8, Replicative DNA helicase DnaB (Mycobacterium tuberculosis, UniProt P9WMR3); assay: DnaB intein splicing inhibitors, dose response, biochemical, cell-free fluorescence (AID 449749); assay type: functional
# T8 sequence (P9WMR3 whole entry): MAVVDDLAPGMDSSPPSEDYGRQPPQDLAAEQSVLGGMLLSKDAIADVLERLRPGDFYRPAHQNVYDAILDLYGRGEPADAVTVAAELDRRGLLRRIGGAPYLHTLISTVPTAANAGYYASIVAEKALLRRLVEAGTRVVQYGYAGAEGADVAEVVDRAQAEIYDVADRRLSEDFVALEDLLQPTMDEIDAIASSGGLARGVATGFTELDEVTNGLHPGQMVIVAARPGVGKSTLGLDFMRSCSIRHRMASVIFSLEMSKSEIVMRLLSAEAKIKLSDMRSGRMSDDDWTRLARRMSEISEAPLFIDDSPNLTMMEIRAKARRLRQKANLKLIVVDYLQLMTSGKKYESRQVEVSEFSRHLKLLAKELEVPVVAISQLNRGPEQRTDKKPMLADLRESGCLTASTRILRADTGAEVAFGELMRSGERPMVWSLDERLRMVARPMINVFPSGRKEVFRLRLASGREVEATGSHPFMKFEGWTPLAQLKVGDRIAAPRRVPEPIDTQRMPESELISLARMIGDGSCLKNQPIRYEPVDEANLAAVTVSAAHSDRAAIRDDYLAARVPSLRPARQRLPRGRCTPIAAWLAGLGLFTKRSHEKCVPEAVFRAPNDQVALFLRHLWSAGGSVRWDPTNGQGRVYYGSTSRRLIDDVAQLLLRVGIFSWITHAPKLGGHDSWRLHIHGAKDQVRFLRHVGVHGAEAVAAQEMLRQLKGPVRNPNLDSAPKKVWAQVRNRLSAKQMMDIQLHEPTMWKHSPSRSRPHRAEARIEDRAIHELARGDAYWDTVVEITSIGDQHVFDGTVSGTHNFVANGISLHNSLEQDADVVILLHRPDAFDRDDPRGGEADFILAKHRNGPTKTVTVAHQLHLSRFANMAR
# [13] = biological target: T9, Protein RecA (Mycobacterium tuberculosis, UniProt P9WHJ3); assay: Fluorescence Cell-Free Homogeneous Dose Retest to Identify Inhibitors of RecA-Intein Splicing Activity. [Related pubchem assays (depositor defined):AID2097, AID2223, AID489010, AID492950]; assay type: functional
# T9 sequence (P9WHJ3 whole entry): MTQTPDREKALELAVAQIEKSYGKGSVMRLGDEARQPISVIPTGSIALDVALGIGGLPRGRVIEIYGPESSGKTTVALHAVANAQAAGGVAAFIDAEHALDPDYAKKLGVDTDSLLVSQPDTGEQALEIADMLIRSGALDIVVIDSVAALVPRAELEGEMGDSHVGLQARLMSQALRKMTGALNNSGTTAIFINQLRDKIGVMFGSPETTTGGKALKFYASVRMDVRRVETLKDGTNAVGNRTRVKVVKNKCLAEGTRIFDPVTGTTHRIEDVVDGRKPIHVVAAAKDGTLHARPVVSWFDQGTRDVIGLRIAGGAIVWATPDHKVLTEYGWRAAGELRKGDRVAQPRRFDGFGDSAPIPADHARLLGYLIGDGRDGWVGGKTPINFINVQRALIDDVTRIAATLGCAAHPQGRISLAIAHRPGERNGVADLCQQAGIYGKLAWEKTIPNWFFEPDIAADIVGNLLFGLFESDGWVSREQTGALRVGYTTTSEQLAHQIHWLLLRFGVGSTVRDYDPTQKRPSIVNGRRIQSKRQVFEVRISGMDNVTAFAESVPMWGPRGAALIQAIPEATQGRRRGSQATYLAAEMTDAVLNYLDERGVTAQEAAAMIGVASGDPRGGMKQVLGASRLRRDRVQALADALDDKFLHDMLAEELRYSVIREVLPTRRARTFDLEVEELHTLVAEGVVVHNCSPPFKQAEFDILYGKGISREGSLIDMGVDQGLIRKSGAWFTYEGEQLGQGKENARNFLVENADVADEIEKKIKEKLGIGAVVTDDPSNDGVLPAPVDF
# [14] = tested on: HEK293; assay: viability loss in HEK293T cells – cell-based, ATP luminescence, cherry-pick samples, cytotoxicity control, dose response (AID 687005); assay type: functional; details: Homo sapiens;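 also: cells exposed to compound for 48 hours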
# [15] = HEK293 Cytotoxicity Assay Measured in Cell-Based System Using Plate Reader - 7071-01_Inhibitor_Dose_CherryPick_Activity_Set2.; assay type: functional
# [16] = biological target: Protein Wnt-3a (Mus musculus, UniProt P27467); assay: SAR analysis of small molecule antagonists of Gli-SUFU in a Wnt3a luminescent reporter assay.; assay type: functional
# [17] = general mammalian cell viability loss – inhibitor set, cherry-pick, set 2, cytotoxicity control for miR-122 modulator project, dose response (AID 720697); assay type: functional, cell-based
# [18] = MITF: Counter assay: A375 proliferation Measured in Cell-Based System Using Plate Reader - 2084-03_Inhibitor_Dose_DryPowder_Activity_Set8.; assay type: functional; details: A-375
# [19] = inhibitors of TRPM1-promoter reporter in SK-MEL-5 – cell-based, luciferase, dry powder, set 8, MITF inhibitor project, dose response (AID 624430); assay type: functional
# [20] = MITF Orthogonal Assay: SK-MEL-5 CTG Assay Measured in Cell-Based System Using Plate Reader - 2084-02_Inhibitor_Dose_DryPowder_Activity_Set7.; assay type: functional
# Sequence of Protein Wnt-3a (P27467 whole entry): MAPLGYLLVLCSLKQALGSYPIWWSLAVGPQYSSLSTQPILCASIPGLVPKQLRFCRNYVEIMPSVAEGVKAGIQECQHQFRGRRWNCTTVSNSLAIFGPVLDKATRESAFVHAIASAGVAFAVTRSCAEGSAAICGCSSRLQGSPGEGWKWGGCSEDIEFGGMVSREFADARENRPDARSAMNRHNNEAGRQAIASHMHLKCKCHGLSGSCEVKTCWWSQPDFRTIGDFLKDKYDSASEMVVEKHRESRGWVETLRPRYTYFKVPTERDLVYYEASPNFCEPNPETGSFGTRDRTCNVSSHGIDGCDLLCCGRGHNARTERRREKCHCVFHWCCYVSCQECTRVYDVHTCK
# Sequence of Disintegrin and metalloproteinase domain-containing protein 17 (P78536 whole entry, the tested form may be a part): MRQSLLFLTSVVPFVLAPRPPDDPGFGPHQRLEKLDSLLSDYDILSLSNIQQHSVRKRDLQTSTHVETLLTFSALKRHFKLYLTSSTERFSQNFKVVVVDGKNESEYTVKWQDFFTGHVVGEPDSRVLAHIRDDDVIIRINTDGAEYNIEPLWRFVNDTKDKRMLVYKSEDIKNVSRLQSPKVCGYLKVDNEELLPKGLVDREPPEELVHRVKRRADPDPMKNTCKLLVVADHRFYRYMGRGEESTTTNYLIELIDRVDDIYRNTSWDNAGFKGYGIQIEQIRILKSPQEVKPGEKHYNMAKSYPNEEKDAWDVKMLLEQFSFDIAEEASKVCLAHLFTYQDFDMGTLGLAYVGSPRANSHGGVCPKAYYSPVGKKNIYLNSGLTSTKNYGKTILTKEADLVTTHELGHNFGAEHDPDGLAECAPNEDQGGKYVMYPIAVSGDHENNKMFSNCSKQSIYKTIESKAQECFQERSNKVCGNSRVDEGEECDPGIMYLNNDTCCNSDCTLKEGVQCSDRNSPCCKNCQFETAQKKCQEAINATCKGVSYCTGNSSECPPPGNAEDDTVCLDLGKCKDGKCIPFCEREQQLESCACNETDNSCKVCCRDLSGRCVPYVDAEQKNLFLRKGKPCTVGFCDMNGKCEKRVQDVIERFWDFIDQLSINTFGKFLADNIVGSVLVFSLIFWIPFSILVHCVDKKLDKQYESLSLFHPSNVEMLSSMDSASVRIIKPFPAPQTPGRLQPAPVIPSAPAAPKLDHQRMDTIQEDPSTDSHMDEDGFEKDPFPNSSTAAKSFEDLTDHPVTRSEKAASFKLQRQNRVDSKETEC
# Sequence of Phospholipase A2 (P04054 whole entry): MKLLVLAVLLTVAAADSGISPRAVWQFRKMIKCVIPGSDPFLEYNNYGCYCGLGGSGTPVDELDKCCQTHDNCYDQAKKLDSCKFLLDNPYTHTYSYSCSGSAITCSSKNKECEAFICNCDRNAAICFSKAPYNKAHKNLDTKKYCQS
# Sequence of Caspase-8 (Q14790 217-374 limits assumed): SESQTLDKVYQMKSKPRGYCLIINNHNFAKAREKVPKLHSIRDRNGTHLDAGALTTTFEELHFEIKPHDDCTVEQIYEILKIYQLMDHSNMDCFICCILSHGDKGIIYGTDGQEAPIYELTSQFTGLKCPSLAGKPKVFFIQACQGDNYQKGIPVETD
# Sequence of Caspase-8 (Q14790 385-479 limits assumed): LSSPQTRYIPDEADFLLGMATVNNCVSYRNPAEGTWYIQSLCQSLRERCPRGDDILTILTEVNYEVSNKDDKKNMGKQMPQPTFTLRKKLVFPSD
smiles,measurement,setting,value
CN(C)c1ccc(C(CNS(=O)(=O)c2ccc(F)c(F)c2)c2c[nH]c3ccccc23)cc1 (centres undefined),IC50,[1],> 69.5 µM (inactive)
same,IC50,[2],> 7.72 µM (active)
Clc1ccc(OCCSc2ncccn2)c(Br)c1,IC50,[3],40.4 µM (active)
same,EC50,[4],> 67.5 µM (inactive)
O=c1oc(-c2ccccc2)nc2sc3c(c12)CCC3,AC50,[5],43.9 µM (active)
same,IC50,[6],9.39 µM (active)
same,AC50,[7],> 70 µM (inactive)
same,IC50,[8],1.95 µM (active)
same,AC50,[9],0.44 µM (active)
same,IC50,[10],5.65 µM (active)
same,AC50,[11],38.7 µM (active)
CCOC(=O)c1ccc(N2C(=O)c3[nH]nc(-c4ccco4)c3C2c2ccc([N+](=O)[O-])cc2)cc1 (centres undefined),IC50,[1],> 69.5 µM (inactive)
same,AC50,[12],2.92 µM (active)
same,IC50,[2],17 µM (inactive)
same,EC50,[13],56.2 µM (active)
CCOC(=O)c1sc2nc3c(cc2c1N)COC(C)(CC)C3 (centres undefined),EC50,[4],> 67.5 µM (inactive)
C[C@@H]1CN([C@H](C)CO)C(=O)c2cccc(NC(=O)c3ccncc3)c2O[C@H]1CN(C)C(=O)Nc1ccc(C(F)(F)F)cc1,AC50,[14],27.7 µM (active)
same,AC50,[15],27.7 µM (active)
O=C(Nc1cc(N2CCCCC2)ncn1)c1ccc(Cl)cc1,IC50,[16],> 21.8 µM (inactive)
O=C(Nc1cc(N2CCCCC2)ncn1)c1ccccc1F,IC50,[16],< 0.0426 µM (active)
C/C=C/c1ccc([C@@H]2[C@@H](CO)N[C@@H]2CN(CC)C(=O)CN2CCOCC2)cc1,AC50,[17],0.431 µM (active)
CC(C)N1CCN(C2=C(Nc3ccc(Cl)cc3)C(=O)c3ccccc3C2=O)CC1,AC50,[18],54.7 µM (active)
same,AC50,[19],2 µM (active)
same,AC50,[20],10.5 µM (active)
